Experiments:
Assay in all cases: KinomeScan
Assay type in all cases: binding
Conditions in all cases: 1 μM
NEK2 = molecular target: T1, NEK2 (Homo sapiens, UniProt P51955)
T1 construct: purchased DiscoverX (KINOMEscan)

CLK4 = molecular target: T2, CLK4 (Homo sapiens, UniProt Q9HAZ1)
T2 construct: purchased DiscoverX (KINOMEscan)

DDR2 = molecular target: T3, DDR2 (Homo sapiens, UniProt Q16832)
T3 construct: purchased DiscoverX (KINOMEscan)

BTK = molecular target: T4, BTK (Homo sapiens, UniProt Q06187)
T4 construct: purchased DiscoverX (KINOMEscan)

KIT(L576P) = molecular target: T5, KIT(L576P) (Homo sapiens, UniProt P10721, L576P)
T5 construct: purchased DiscoverX (KINOMEscan)

CDK8 = molecular target: T6, CDK8 (Homo sapiens, UniProt P49336)
T6 construct: purchased DiscoverX (KINOMEscan)

FLT3(N841I) = molecular target: T7, FLT3(N841I) (Homo sapiens, UniProt P36888, N841I)
T7 construct: purchased DiscoverX (KINOMEscan)

TAOK2 = molecular target: T8, TAOK2 (Homo sapiens, UniProt Q9UL54)
T8 construct: purchased DiscoverX (KINOMEscan)

LIMK1 = molecular target: T9, LIMK1 (Homo sapiens, UniProt P53667)
T9 construct: purchased DiscoverX (KINOMEscan)

MKNK2 = molecular target: T10, MKNK2 (Homo sapiens, UniProt Q9HBH9)
T10 construct: purchased DiscoverX (KINOMEscan)

CDK11 = molecular target: T11, CDK11 (Homo sapiens, UniProt Q9BWU1)
T11 construct: purchased DiscoverX (KINOMEscan)

KIT = molecular target: T12, KIT (Homo sapiens, UniProt P10721)
T12 construct: purchased DiscoverX (KINOMEscan)

TNK2 = molecular target: T13, TNK2 (Homo sapiens, UniProt Q07912)
T13 construct: purchased DiscoverX (KINOMEscan)
T13 sequence (Q07912 whole entry): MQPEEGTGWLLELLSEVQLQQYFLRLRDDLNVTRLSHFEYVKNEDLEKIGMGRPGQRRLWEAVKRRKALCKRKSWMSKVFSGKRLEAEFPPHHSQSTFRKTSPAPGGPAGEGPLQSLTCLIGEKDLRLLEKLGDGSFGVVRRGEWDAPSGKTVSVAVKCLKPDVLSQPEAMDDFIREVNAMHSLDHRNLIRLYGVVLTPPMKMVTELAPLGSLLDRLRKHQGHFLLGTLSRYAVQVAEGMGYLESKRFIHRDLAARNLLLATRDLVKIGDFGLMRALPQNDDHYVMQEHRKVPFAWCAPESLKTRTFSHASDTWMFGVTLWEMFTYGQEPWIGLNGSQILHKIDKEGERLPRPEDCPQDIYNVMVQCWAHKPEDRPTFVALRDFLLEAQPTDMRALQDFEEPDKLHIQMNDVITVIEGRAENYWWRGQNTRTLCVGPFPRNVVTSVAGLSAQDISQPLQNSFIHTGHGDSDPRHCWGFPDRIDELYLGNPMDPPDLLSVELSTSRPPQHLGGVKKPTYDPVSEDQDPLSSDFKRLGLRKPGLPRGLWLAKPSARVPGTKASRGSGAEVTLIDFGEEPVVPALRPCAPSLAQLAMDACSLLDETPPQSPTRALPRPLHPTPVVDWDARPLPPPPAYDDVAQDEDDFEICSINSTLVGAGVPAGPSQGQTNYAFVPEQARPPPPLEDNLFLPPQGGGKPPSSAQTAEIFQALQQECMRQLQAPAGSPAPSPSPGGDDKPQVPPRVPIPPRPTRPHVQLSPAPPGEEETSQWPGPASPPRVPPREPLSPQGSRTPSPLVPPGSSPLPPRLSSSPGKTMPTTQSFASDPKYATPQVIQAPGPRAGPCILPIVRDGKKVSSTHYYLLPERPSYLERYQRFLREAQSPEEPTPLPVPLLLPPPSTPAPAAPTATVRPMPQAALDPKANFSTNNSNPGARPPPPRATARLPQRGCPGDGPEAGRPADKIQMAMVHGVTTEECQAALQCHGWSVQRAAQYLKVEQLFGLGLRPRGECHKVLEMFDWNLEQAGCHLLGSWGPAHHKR

CAMK2D = molecular target: T14, CAMK2D (Homo sapiens, UniProt Q13557)
T14 construct: purchased DiscoverX (KINOMEscan)

PIM2 = molecular target: T15, PIM2 (Homo sapiens, UniProt Q9P1W9)
T15 construct: purchased DiscoveRx (KinomeScan, San Diego, CA, USA)

FLT4 = molecular target: T16, FLT4 (Homo sapiens, UniProt P35916)
T16 construct: purchased DiscoverX (KINOMEscan)

SGK3 = molecular target: T17, SGK3 (Homo sapiens, UniProt Q96BR1)
T17 construct: purchased DiscoverX (KINOMEscan)

AURKB = molecular target: T18, AURKB (Homo sapiens, UniProt Q96GD4)
T18 construct: purchased DiscoverX (KINOMEscan)

CDK4-cyclinD3 = molecular target: T19, CDK4-cyclinD3 (Homo sapiens, UniProt P11802)
T19 construct: purchased DiscoverX (KINOMEscan)
T19 sequence (P11802 whole entry): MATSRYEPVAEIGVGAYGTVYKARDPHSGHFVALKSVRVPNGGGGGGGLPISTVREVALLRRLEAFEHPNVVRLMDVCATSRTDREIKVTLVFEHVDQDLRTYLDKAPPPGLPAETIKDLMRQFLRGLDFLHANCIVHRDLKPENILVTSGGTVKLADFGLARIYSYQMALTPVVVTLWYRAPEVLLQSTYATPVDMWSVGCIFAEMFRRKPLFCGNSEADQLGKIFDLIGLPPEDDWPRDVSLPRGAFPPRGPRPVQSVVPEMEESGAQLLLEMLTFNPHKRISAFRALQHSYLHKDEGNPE
T19 sequence (P30281 whole entry partner): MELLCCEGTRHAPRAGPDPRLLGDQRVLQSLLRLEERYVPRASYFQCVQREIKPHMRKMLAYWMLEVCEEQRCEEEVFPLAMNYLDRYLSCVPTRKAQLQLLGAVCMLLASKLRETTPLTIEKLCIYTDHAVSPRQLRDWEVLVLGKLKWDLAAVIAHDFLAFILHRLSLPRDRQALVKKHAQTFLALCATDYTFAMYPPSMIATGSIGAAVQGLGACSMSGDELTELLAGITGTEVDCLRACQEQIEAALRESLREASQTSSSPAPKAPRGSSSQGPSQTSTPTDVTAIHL

NEK5 = molecular target: T20, NEK5 (Homo sapiens, UniProt Q6P3R8)
T20 construct: purchased DiscoverX (KINOMEscan)
T20 sequence (Q6P3R8 whole entry): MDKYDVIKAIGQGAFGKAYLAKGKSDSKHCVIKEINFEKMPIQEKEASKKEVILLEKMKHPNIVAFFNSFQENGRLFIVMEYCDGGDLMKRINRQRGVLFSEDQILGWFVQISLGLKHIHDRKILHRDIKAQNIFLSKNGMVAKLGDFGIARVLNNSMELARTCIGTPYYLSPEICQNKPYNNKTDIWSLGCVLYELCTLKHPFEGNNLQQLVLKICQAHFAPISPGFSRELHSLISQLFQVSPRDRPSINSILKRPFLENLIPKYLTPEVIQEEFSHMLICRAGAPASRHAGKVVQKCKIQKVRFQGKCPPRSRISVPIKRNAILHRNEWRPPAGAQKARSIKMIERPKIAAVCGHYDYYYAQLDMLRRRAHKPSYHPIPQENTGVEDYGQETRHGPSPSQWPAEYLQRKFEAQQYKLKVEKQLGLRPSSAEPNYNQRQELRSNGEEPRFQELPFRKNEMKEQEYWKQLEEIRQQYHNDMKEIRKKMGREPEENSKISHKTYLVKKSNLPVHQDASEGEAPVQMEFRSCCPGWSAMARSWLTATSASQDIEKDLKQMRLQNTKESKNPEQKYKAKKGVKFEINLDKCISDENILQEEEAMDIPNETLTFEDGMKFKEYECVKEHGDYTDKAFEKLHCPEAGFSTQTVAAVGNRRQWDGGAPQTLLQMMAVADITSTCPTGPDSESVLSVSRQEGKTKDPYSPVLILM

CAMKK1 = molecular target: T21, CAMKK1 (Homo sapiens, UniProt Q8N5S9)
T21 construct: purchased DiscoverX (KINOMEscan)

TAK1 = molecular target: T22, TAK1 (Homo sapiens, UniProt O43318)
T22 construct: purchased DiscoverX (KINOMEscan)
T22 sequence (O43318 whole entry): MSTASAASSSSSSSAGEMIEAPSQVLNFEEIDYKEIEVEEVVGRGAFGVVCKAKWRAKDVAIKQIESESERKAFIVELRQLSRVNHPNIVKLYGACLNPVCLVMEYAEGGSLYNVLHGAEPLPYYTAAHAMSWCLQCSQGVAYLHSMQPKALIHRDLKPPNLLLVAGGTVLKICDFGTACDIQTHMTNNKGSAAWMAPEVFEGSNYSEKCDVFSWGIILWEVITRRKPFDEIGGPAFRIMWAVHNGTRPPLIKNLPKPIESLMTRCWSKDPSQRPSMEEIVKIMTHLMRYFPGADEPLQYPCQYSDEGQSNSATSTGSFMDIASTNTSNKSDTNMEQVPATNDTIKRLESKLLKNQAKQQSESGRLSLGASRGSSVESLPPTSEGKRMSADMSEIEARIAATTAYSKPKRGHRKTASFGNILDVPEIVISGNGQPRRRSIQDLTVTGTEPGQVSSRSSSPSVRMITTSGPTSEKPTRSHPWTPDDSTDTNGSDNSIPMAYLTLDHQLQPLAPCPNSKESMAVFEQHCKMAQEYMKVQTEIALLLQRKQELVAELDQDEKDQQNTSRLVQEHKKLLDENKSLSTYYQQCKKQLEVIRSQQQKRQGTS

MET(Y1235D) = molecular target: T23, MET(Y1235D) (Homo sapiens, UniProt P08581, Y1235D)
T23 construct: purchased DiscoverX (KINOMEscan)

DCAMKL2 = molecular target: T24, DCAMKL2 (Homo sapiens, UniProt Q8N568)
T24 construct: purchased DiscoverX (KINOMEscan)
T24 sequence (Q8N568 whole entry): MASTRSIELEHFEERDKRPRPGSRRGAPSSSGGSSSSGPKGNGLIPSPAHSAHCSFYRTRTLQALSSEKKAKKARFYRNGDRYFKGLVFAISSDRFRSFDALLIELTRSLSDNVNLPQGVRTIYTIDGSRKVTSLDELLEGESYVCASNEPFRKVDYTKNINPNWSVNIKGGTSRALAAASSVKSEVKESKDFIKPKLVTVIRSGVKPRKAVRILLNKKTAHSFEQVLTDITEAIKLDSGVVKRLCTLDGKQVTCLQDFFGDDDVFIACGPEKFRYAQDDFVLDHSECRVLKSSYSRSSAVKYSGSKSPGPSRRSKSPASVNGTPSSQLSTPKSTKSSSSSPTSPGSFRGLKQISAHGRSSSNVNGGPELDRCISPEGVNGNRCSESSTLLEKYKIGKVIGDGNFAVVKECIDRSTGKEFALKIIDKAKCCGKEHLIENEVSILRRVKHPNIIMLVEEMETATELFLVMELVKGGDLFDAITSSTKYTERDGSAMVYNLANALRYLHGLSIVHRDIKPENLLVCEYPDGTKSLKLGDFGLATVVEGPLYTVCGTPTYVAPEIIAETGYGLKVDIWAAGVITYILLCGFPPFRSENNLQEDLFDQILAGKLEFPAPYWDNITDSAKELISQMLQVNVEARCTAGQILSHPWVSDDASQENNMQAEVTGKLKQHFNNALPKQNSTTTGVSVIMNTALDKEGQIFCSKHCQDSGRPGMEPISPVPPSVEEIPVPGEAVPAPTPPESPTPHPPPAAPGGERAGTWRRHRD

CDK9 = molecular target: T25, CDK9 (Homo sapiens, UniProt P50750)
T25 construct: purchased DiscoverX (KINOMEscan)

NEK4 = molecular target: T26, NEK4 (Homo sapiens, UniProt P51957)
T26 construct: purchased DiscoverX (KINOMEscan)
T26 sequence (P51957 whole entry): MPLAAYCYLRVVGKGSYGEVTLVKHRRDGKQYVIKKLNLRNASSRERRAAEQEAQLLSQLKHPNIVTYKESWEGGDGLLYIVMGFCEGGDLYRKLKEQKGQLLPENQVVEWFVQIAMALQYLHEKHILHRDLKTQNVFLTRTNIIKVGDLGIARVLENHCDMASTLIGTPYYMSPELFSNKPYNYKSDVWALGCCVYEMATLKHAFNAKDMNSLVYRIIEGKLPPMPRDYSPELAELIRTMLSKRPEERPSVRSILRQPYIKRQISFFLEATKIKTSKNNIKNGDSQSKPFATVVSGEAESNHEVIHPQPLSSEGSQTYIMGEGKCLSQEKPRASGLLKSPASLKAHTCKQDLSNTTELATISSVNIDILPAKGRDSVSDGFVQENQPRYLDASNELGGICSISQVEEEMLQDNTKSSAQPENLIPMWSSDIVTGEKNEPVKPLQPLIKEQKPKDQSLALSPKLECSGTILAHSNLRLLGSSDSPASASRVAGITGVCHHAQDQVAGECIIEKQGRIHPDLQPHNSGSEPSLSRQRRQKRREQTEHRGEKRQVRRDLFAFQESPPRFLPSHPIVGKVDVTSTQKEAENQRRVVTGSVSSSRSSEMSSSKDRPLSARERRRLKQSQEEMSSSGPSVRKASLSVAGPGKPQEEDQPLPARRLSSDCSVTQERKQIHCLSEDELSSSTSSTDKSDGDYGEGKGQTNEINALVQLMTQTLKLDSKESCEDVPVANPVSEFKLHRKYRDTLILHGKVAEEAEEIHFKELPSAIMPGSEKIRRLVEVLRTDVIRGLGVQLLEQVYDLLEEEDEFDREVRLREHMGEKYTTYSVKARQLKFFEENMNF

IKK-beta = molecular target: T27, IKK-beta (Homo sapiens, UniProt O14920)
T27 construct: purchased DiscoverX (KINOMEscan)

WEE2 = molecular target: T28, WEE2 (Homo sapiens, UniProt P0C1S8)
T28 construct: purchased DiscoverX (KINOMEscan)

FYN = molecular target: T29, FYN (Homo sapiens, UniProt P06241)
T29 construct: purchased DiscoverX (KINOMEscan)

BRK = molecular target: T30, BRK (Homo sapiens, UniProt Q13882)
T30 construct: purchased DiscoverX (KINOMEscan)

AKT1 = molecular target: T31, AKT1 (Homo sapiens, UniProt P31749)
T31 construct: purchased DiscoverX (KINOMEscan)

MYLK4 = molecular target: T32, MYLK4 (Homo sapiens, UniProt Q86YV6)
T32 construct: purchased DiscoverX (KINOMEscan)
T32 sequence (Q86YV6 whole entry): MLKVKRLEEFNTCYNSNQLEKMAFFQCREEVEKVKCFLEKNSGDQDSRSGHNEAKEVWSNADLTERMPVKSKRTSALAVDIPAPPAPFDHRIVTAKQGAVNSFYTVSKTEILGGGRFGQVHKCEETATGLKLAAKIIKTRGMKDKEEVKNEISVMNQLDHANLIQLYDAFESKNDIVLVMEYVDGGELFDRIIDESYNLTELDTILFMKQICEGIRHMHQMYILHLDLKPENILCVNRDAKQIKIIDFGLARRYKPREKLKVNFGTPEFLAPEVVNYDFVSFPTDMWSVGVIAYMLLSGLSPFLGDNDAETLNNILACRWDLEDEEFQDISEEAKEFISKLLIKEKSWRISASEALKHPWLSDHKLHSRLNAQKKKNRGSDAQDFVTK

FLT3(D835Y) = molecular target: T33, FLT3(D835Y) (Homo sapiens, UniProt P36888, D835Y)
T33 construct: purchased DiscoverX (KINOMEscan)

MKNK1 = molecular target: T34, MKNK1 (Homo sapiens, UniProt Q9BUB5)
T34 construct: purchased DiscoverX (KINOMEscan)

[1] = molecular target: T35, ABL1(F317L)-nonphosphorylated (Homo sapiens, UniProt P00519, F317L)
T35 construct: purchased DiscoverX (KINOMEscan)

TRKB = molecular target: T36, TRKB (Homo sapiens, UniProt Q16620)
T36 construct: purchased DiscoverX (KINOMEscan)

LATS1 = molecular target: T37, LATS1 (Homo sapiens, UniProt O95835)
T37 construct: purchased DiscoverX (KINOMEscan)

`COc1cc(/C=C2\N=C(N)NC2=O)ccc1O` [Polyandrocarpamine A] showed a Score (NEK2) of 100, a Score (CLK4) of 30 and a Score (DDR2) of 69. For the same molecule, the Score (BTK) was 100, the Score (KIT(L576P)) was 99 and the Score (CDK8) was 100. For the same molecule, the Score (FLT3(N841I)) was 100, the Score (TAOK2) was 100 and the Score (LIMK1) was 100. It also gave a Score (MKNK2) of 100, a Score (CDK11) of 100 and a Score (KIT) of 87. It also gave a Score (TNK2) of 100, a Score (CAMK2D) of 100 and a Score (PIM2) of 21. It also gave a Score (FLT4) of 100, a Score (SGK3) of 100 and a Score (AURKB) of 100. It also gave a Score (CDK4-cyclinD3) of 98, a Score (NEK5) of 95 and a Score (CAMKK1) of 100. For the same molecule, the Score (TAK1) was 100, the Score (MET(Y1235D)) was 100 and the Score (DCAMKL2) was 100. For the same molecule, the Score (CDK9) was 88, the Score (NEK4) was 100 and the Score (IKK-beta) was 100. For the same molecule, the Score (WEE2) was 100, the Score (FYN) was 100 and the Score (BRK) was 100. The Score (AKT1) was 100, the Score (MYLK4) was 96 and the Score (FLT3(D835Y)) was 100. The Score (MKNK1) was 63, the Score [1] was 100 and the Score (TRKB) was 100. For the same molecule, the Score (LATS1) was 100.

From publication PMC5666424, “Marine-Derived 2-Aminoimidazolone Alkaloids. Leucettamine B-Related Polyandrocarpamines Inhibit Mammalian and Protozoan DYRK & CLK Kinases” (Marine Drugs, 2017)
